Counter-ions that a name gives are not always drawn.
Key:
[1] = tested on: spontaneously hypertensive rats (SHR); experiment: Diuretic activity in spontaneously hypertensive rats; assay type: in vivo, male spontaneously hypertensive rats (Okamoto strain); conditions: 100 mg/kg by gavage with 0.9% sodium chloride loading 25 ml/kg; 0-5 hour urine
Protocol: The diuretic activity of the compounds of this invention was also determined according to the method of Chan, P. S. and Poorvin, D., Sequential method for combined screening antihypertensive and diuretic agents in the same spontaneously hypertensive rat. Clinical and Experimental Hypertension, 1(6), 817-830 (1979).
Male spontaneously hypertensive rats (SHR) of Okamoto strain, 16 weeks old, Taconic Farms Inc. were used in the test. These rats were kept on Purina laboratory chow and tap water ad libitum for 8 weeks before use. One male adult rat (about 300 g) was dosed by gavage with a test compound at 100 mg/kg together with 0.9% sodium chloride loading at 25 ml/kg at zero hour. The test compound was suspended in 3% preboiled starch at 50 mg/ml. The rat was put in a metabolism cage. The 0-5 hour urine was collected and urinary sodium and potassium were determined using a Beckman Astra 4. The effects of representative compounds of the invention according to this test appear in Table III expressed in milliequivalents (mEQ) of urinary sodium and potassium excreted.

plasma renin activity = experiment: Inhibition of evoked (drug-induced) elevation of plasma renin activity in conscious rats; assay type: in vivo, male Wistar rats; conditions: Rattus norvegicus; 25 mg/kg oral, 30 min before provocative treatment
Protocol: Inhibition of evoked increase of plasma renin activity was determined by the following test.
Compounds were tested for their ability to prevent drug-induced elevation of plasma renin activity (PRA) in concious, male Wistar rats (180-200 g, Charles River Lab.). PRA elevation was induced by a combined oral provacative treatment (C) of hydrochlorothiazide (10 mg/kg) and 1-(3-benzoyl-3-mercapto-2-methylpropionyl)-L-proline, acetate (U.S. Pat. No. 4,226,775) (one mg/kg), prepared by compounding in a mortar and pestle with preboiled 3% starch suspension. This treatment provided the daily maximum PRA. The daily minimum PRA was obtained from rats given oral starch suspension (S) alone. The magnitude of drug effect on PRA elevation was ascertained from rats pretreated orally with test agent (D), at the indicated doses, 30 minutes prior to administration of provacative treatment (C). The test agent was also compounded in preboiled 3% starch suspension. The dose volumes for both pretreatment and provocative treatment were 2 ml/kg. One hour after provocative treatment the rats were sacrificed by decapitation and the first 3 seconds of blood collected in two chilled Vacutainer® tubes (Becton-Dickinson, Rutherford, N.J.) containing 40 μl of 150 mg/ml tripotassium EDTA. The plasma fractions, obtained by centrifugation for 20 minutes at 4° C. and 3000 G, were incubated (one of each pair at 37° C., the other at 4° C.) at pH 6.8 in 50 mM phosphate buffer to produce angiotensin I. The incubates contained peptidase inhibitors to prevent angiotensin I degradation and the incubation buffer contained one mg/ml lysozyme (Sigma Grade III) used as an antiabsorbant. The incubates were diluted 20 fold in cold 100 mM Tris buffer (pH adjusted to 7.4 with glacial acetic acid) also containing one mg/ml lysozyme, and then frozen. Diluted incubates were assayed within 3 days for angiotensin I content by radioimmunoassay according to a modification of the method of Haber, et al., J. Clin. Endocrin., 29, 1349-1355 (1969).
PRA is calculated as follows:
PRA(ng AI/hour/ml plasma)=PRA 37° C.-PRA 4° C.
Percent inhibition of PRA elevation is calculated as follows: [formula]

SMILES | Potassium (urinary excretion) [1] [mEQ/5 Hours] | Sodium (urinary excretion) [1] [mEQ/5 Hours] | Volume (urine) [1] [mL] | inhibition in vivo at 25 mg/kg (plasma renin activity) [%]
CCOC(=O)N=P(c1ccccc1)(c1ccccc1C)c1ccccc1C [[bis(2-methylphenyl)phenylphosphoranylidene]carbamic acid, ethyl ester] | 0.73 | 1.46 | 14.5 | 54
COC(=O)N=P(c1ccccc1)(c1ccccc1)c1ccccc1Cl [[(2-chlorophenyl)diphenylphosphoranylidene]carbamic acid, methyl ester] | 0.94 | 2.30 | 20.0 | 98
Cc1ccccc1P(=NC(=O)OC1CCOC1)(c1ccccc1)c1ccccc1 (stereo not drawn) [[(2-Methylphenyl)diphenylphosphoranylidene]carbamic acid, tetrahydro-3-furanyl ester] | 0.97 | 2.71 | 22.3 | 93
CCOC(=O)N=P(c1ccccc1)(c1ccccc1)c1ccccc1C(F)(F)F [[diphenyl[2-(trifluoromethyl)phenyl]phosphoranylidene]carbamic acid, ethyl ester] | 0.91 | 2.12 | 19.3 | 75
CCOC(=O)N=P(c1ccccc1)(c1ccccc1)c1ccccc1C [[(2-Methylphenyl)diphenylphosphoranylidene]carbamic acid, ethyl ester] | 0.78 | 2.68 | 25.5 | 92
CCCOC(=O)N=P(c1ccccc1)(c1ccccc1)c1ccccc1 [(Triphenylphosphoaranylidene)carbamic acid, n-propyl ester] | 0.48 | 1.37 | 12.5 | 90
COC(=O)N=P(c1ccccc1)(c1ccccc1)c1c(C)cccc1C [[(2,6-dimethylphenyl)diphenylphosphoranylidene]carbamic acid, methyl ester] | 0.84 | 1.33 | 12.8 | 68
C=CCOC(=O)N=P(c1ccccc1)(c1ccccc1)c1ccccc1 [(triphenylphosphoranylidene)carbamic acid, 2-propenyl ester] | 0.67 | 1.17 | 13.3 | 67
CCOC(=O)N=P(c1ccccc1)(c1ccccc1)c1cccc(Cl)c1Cl [[(2,3-dichlorophenyl)diphenylphosphoranylidene]carbamic acid ethyl ester] | 0.86 | 1.83 | 14.3 | 
C[C@@H]1CCC[C@H]1OC(=O)N=P(c1ccccc1)(c1ccccc1)c1ccccc1 (relative stereo) [(triphenylphosphoranylidene)carbamic acid, trans-2-methylcyclopentyl ester] | 0.68 | 1.55 | 14.3 | 
CCOC(=O)N=P(c1ccccc1)(c1ccccc1)c1ccccc1Cl [[(2-chlorophenyl)diphenylphosphoranylidene]carbamic acid, ethyl ester] | 0.71 | 2.05 | 19.5 | 96
CCOC(=O)N=P(c1ccccc1)(c1ccccc1)c1cccc(Cl)c1 [[(3-chlorophenyl)diphenylphosphoranylidene]carbamic acid, ethyl ester] | 0.64 | 2.32 | 23.8 | 
CC(OC(=O)N=P(c1ccccc1)(c1ccccc1)c1ccccc1)C1CC1 (stereo not drawn) [(triphenylphosphoranylidene)carbamic acid, 1-cyclopropylethyl ester] | 0.65 | 1.19 | 12.0 | 
N=P(c1ccccc1)(c1ccccc1)c1ccccc1 [Triphenylphosphinimide sulfate] | 0.65 | 1.25 | 12.0 | 
Cc1ccccc1P(=N)(c1ccccc1)c1ccccc1C [[Bis(2-methylphenyl)phenyl]phosphinimide sulfate] | 0.88 | 1.44 | 13.0 | 
O=C(N=P(c1ccccc1)(c1ccccc1)c1ccccc1C(F)(F)F)OC1CCOC1 (stereo not drawn) [[diphenyl[2-(trifluoromethyl)phenyl]phosphoranylidene]carbamic acid, tetrahydro-3-furanyl ester] | 0.63 | 1.64 | 16.3 | 
Cc1ccccc1P(=NC(=O)OC1CCCC1)(c1ccccc1)c1ccccc1 [[(2-methylphenyl)diphenylphosphoranylidene]carbamic acid, cyclopentyl ester] | 0.67 | 1.18 | 10.8 | 
CCOC(=O)N=P(c1ccccc1)(c1ccccc1)c1cccc(Br)c1 [[(3-Bromophenyl)diphenylphosphoranylidene]carbamic acid, ethyl ester] | 0.78 | 1.16 | 12.4 | 
O=C(N=P(c1ccccc1)(c1ccccc1)c1ccccc1)OCc1ccncc1 [(triphenylphosphoranylidene)carbamic acid, 4-pyridinylmethyl ester] | 0.70 | 1.50 | 16.5 | 
COC(=O)N=P(c1ccccc1)(c1ccccc1)c1ccccc1C [[(2-methylphenyl)diphenylphosphoranylidene]carbamic acid, methyl ester] | 0.88 | 1.95 | 18.3 | 
CCc1ccccc1P(=NC(=O)OC)(c1ccccc1)c1ccccc1 [[(2-ethylphenyl)diphenylphosphoranylidene]carbamic acid, methyl ester] | 0.58 | 1.36 | 14.3 | 
Cc1ccccc1P(=N)(c1ccccc1)c1ccccc1 [(2-Methylphenyl)diphenylphosphinimide sulfate] | 0.68 | 1.88 | 16.3 | 
O=C(N=P(c1ccccc1)(c1ccccc1)c1ccccc1)OCC1CCC1 [(Triphenylphosphoranylidene)carbamic acid, cyclobutylmethyl ester] | 0.60 | 1.47 | 14.5 | 

— patent publication US4767749A, “Ester of (triarylphosphoranylidene)carbamic acid having diuretic and ability to lower plasma renin properties” (American Cyanamid Company, priority 1986, dated 1988)
